Read-outs that look alike come from different tables or passages of the source.
Test: Lung-tissue pharmacokinetics of PG–OJ components in tumor-bearing mice (UPLC–MS/MS)
Assay type: in vivo, BALB/c nude male mice
Conditions: for MRT last: read-out: MRT(0–t) (converted)
Text: This study employed Ultra-Performance Liquid Chromatography–Mass Spectrometry (UPLC–MS/MS) to examine the pharmacokinetic properties of 20 bioactive components in a cell-derived xenograft (CDX) model following oral administration of a 10.2 g/kg PG–OJ extract.
Healthy BALB/c nude male mice (weight: 18–21 g) were purchased from Beijing Huafukang Biotechnology Co., Ltd. (Beijing, China, License Number: SCXK (Jing) 2021-0006). After 3 days of acclimatization, the mice were randomly divided into the control group (CG), model group (MG), and the combined-administration group of P. ginseng and O. japonicus (HM1-HM13) ([…], four-fold clinical-equivalent doses). Subsequently, except for the CG, 0.2 mL (approximately 2 × 10^7 cells) of A549 cell suspension was aspirated with a 1 mL syringe and injected into the right axillary fossa of the model group and drug-administration-group mice. The control-group mice were injected with an equal volume of PBS at the same location. The tumor diameter was measured daily using a caliper. The model was successful when the tumor diameter > 3 mm. The combined-administration group of P. ginseng and O. japonicus was given the corresponding drug orally, once a day, with 0.2 mL/mouse each time. The control group and the model group mice were given the same volume of distilled water, continuously orally for 21 days. During this period, the body weight and tumor volume of the mice were recorded. At the end of the last administration, the mice were […] 0.083, 0.167, 0.25, 0.5, 0.75, 1, 2, 3, 4, 6, 8, 12, 24 h later. After injecting 0.1% pentobarbital sodium, blood was collected from the eye-socket vein, the mice were decapitated, and the tumor and lung tissues were carefully removed.
After homogenizing 50 mg of right-lung-tissue sample, 2 mL of acetonitrile was added to precipitate proteins. The mixture was oscillated for 2 min and then centrifuged for 10 min (12,000 rpm, 4 °C). The supernatant from the new centrifuge tube was collected and dried with nitrogen at room temperature. Finally, the supernatant was redissolved in 50 μL of acetonitrile solution containing 0.1% formic acid. After oscillating for 1 min, another centrifugation step was performed, and the resulting supernatant was used for analysis.
Samples were analyzed on the Vanquish UPLC System (Thermo, Waltham, MA, USA). The Agilent C18 column (4.6 × 150 mm, 4 μm, PN:693970-902T) was selected. The mobile phase was composed of 0.1% formic acid aqueous solution (A) and 0.1% formic acid acetonitrile solution (B). The procedure of gradient elution was as follows: 0–10 min, 95–75% A; 10–25 min, 75–45% A; 25–40 min, 45–30% A; 40–50 min, 30–5% A; 55–55.1 min, 5–95% A; 55.1–60 min, 95% A. The column temperature was set to 30 °C with the flow rate of 0.3 mL/min and the injection volume of 3.0 μL. The mass-spectrometry detection with negative-ion mode was carried out using an Orbitrap Exploris 120 Mass Spectrometer (Thermo, Waltham, MA, USA) and Electrospray ionization (ESI). The sheath-gas-flow rate was […] and the auxiliary-gas-flow rate was […]. The capillary temperature was 325 °C, and the resolution was 120,000 in full scan mode with the mass scan range of 80~1500 m/z. The secondary cracking was performed with HCD at a collision voltage of 30 eV, and unnecessary MS/MS information was removed using the dynamic exclusion method.

[1] = male, BALB/c nude, mouse, in vivo, po
[2] = male, BALB/c nude, mouse, in vivo, po, Tmax
[3] = lung tissue, A549 tumor-bearing mice, intragastric PG–OJ extract 10.2 g/kg (6.8 g/kg elsewhere in the source), mean ± SD, n = 6
[4] = lung tissue, oral PG–OJ extract, in words
[5] = male, BALB/c nude, mouse, lung tissue, po, 10.2 g/kg, lung tissue, A549 tumor-bearing mice, intragastric PG–OJ extract 10.2 g/kg (6.8 g/kg elsewhere in the source), mean ± SD, n = 6, read-out: Tmax (converted)
[6] = male, BALB/c nude, mouse, lung tissue, po, 10.2 g/kg, lung tissue, oral PG–OJ extract, read-out: time to reach peak concentration
[7] = male, BALB/c nude, mouse, po, lung tissue, A549 tumor-bearing mice, intragastric PG–OJ extract 10.2 g/kg (6.8 g/kg elsewhere in the source), mean ± SD, n = 6, read-out: Cmax
[8] = male, BALB/c nude, mouse, po, lung tissue, A549 tumor-bearing mice, intragastric PG–OJ extract 10.2 g/kg (6.8 g/kg elsewhere in the source), mean ± SD, n = 6
[9] = male, BALB/c nude, mouse, po, lung tissue, A549 tumor-bearing mice, intragastric PG–OJ extract 10.2 g/kg (6.8 g/kg elsewhere in the source), mean ± SD, n = 6, read-out: T1/2
[10] = lung tissue, oral PG–OJ extract

Row | Compound | half-life [1] [min] | Tmax [2] [h] | AUC(0–t) [3] | AUC(0–∞) [3] | Tmax [5] [h] | Cmax [7] [ng/g] | MRT last [8] [h] | half-life [9] [min] | also measured
1 | 24(R)-pseudoginsenoside F11 |  |  |  |  |  |  |  |  | T1/2 (mouse, in vivo, po): 227.16 ± 12.27 min; Tmax (mouse, in vivo, po): 0.25 ± 0 h; time to reach maximum concentration (Cmax) after administration (mouse, in vivo, po): ≤ 15 min
2 | CC(C)=CCC[C@](C)(O[C@@H]1O[C@H](CO)[C@@H](O)[C@H](O)[C@H]1O)[C@H]1CC[C@]2(C)[C@@H]1[C@H](O)C[C@@H]1[C@@]3(C)CC[C@H](O)C(C)(C)[C@@H]3[C@@H](O)C[C@]12C [Ginsenoside F1] | 134 ± 14.4 | 4 |  |  |  |  |  |  | exposure level in lung tissue (mouse, in vivo, po): extremely low
3 | CC(C)=CCC[C@](C)(O[C@@H]1O[C@H](CO)[C@@H](O)[C@H](O)[C@H]1O)[C@H]1CC[C@]2(C)[C@@H]1[C@H](O)C[C@@H]1[C@@]3(C)CC[C@H](O[C@@H]4O[C@H](CO)[C@@H](O)[C@H](O)[C@H]4O)C(C)(C)[C@@H]3CC[C@]12C [Ginsenoside F2] | 350 ± 16.1 | 1 |  |  |  |  |  |  | AUC(0–∞) compared with other components (mouse, in vivo, po): significantly higher than those of other components
4 | CC(C)=CCC[C@](C)(O[C@@H]1O[C@H](CO[C@@H]2O[C@H](CO)[C@@H](O)[C@H](O)[C@H]2O)[C@@H](O)[C@H](O)[C@H]1O)[C@H]1CC[C@]2(C)[C@@H]1[C@H](O)C[C@@H]1[C@@]3(C)CC[C@H](O[C@@H]4O[C@H](CO)[C@@H](O)[C@H](O)[C@H]4O[C@@H]4O[C@H](CO)[C@@H](O)[C@H](O)[C@H]4O)C(C)(C)[C@@H]3CC[C@]12C [Ginsenoside Rb1] |  |  | 227,245.91 ± 5460.47 ng/g·min | 283,948.70 ± 17,261.40 ng/g·min | 12 | 441 ± 15.7 | 11.5 | 1970 ± 189 | AUC(0–∞) compared with other components [4]: significantly higher than those of other components; Tmax [6]: 12 h
5 | CC(C)=CCC[C@](C)(O[C@@H]1O[C@H](CO[C@@H]2OC[C@H](O)[C@H](O)[C@H]2O)[C@@H](O)[C@H](O)[C@H]1O)[C@H]1CC[C@]2(C)[C@@H]1[C@H](O)C[C@@H]1[C@@]3(C)CC[C@H](O[C@@H]4O[C@H](CO)[C@@H](O)[C@H](O)[C@H]4O[C@@H]4O[C@H](CO)[C@@H](O)[C@H](O)[C@H]4O)C(C)(C)[C@@H]3CC[C@]12C [Ginsenoside Rb2] |  |  | 3935.63 ± 598.40 ng·min/g | 6076.50 ± 664.68 ng·min/g |  | 7.2 ± 0.96 | 11.9 | 1190 ± 263 | 
6 | CC(C)=CCC[C@](C)(O[C@@H]1O[C@H](CO[C@@H]2OC[C@@H](O)[C@H](O)[C@H]2O)[C@@H](O)[C@H](O)[C@H]1O)[C@H]1CC[C@]2(C)[C@@H]1[C@H](O)C[C@@H]1[C@@]3(C)CC[C@H](O[C@@H]4O[C@H](CO)[C@@H](O)[C@H](O)[C@H]4O[C@@H]4O[C@H](CO)[C@@H](O)[C@H](O)[C@H]4O)C(C)(C)[C@@H]3CC[C@]12C [Ginsenoside Rb3] |  |  | 4049.29 ± 622.84 ng·min/g | 16,689.44 ± 2585.97 ng/g·min |  | 5.92 ± 0.45 | 13.8 | 4000 ± 516 | 
7 | CC(C)=CCC[C@](C)(O[C@@H]1O[C@H](CO[C@@H]2O[C@@H](CO)[C@H](O)[C@H]2O)[C@@H](O)[C@H](O)[C@H]1O)[C@H]1CC[C@]2(C)[C@@H]1[C@H](O)C[C@@H]1[C@@]3(C)CC[C@H](O[C@@H]4O[C@H](CO)[C@@H](O)[C@H](O)[C@H]4O[C@@H]4O[C@H](CO)[C@@H](O)[C@H](O)[C@H]4O)C(C)(C)[C@@H]3CC[C@]12C [Ginsenoside Rc] |  |  | 23,180.66 ± 703.80 ng/g·min | 25,129.88 ± 1611.92 ng/g·min | 12 | 43 ± 2.11 | 11.6 | 445 ± 101 | Tmax [6]: 12 h
8 | CC(C)=CCC[C@](C)(O[C@@H]1O[C@H](CO)[C@@H](O)[C@H](O)[C@H]1O)[C@H]1CC[C@]2(C)[C@@H]1[C@H](O)C[C@@H]1[C@@]3(C)CC[C@H](O[C@@H]4O[C@H](CO)[C@@H](O)[C@H](O)[C@H]4O[C@@H]4O[C@H](CO)[C@@H](O)[C@H](O)[C@H]4O)C(C)(C)[C@@H]3CC[C@]12C [Ginsenoside Rd] |  |  | 46,163.94 ± 1033.00 ng/g·min | 56,296.57 ± 6663.99 ng/g·min |  | 83 ± 2.11 | 11.1 | 971 ± 221 | AUC(0–∞) compared with other components [4]: significantly higher than those of other components
9 | CC(C)=CCC[C@](C)(O[C@@H]1O[C@H](CO)[C@@H](O)[C@H](O)[C@H]1O)[C@H]1CC[C@]2(C)[C@@H]1[C@H](O)C[C@@H]1[C@@]3(C)CC[C@H](O)C(C)(C)[C@@H]3[C@@H](O[C@@H]3O[C@H](CO)[C@@H](O)[C@H](O)[C@H]3O[C@@H]3O[C@@H](C)[C@H](O)[C@@H](O)[C@H]3O)C[C@]12C [Ginsenoside Re] |  |  | 3815.68 ± 233.30 ng·min/g | 3933.20 ± 224.66 ng·min/g | 0.0833 | 132 ± 32.9 | 1.57 | 106 ± 4.36 | time to reach maximum concentration (Cmax) after administration [10]: ≤ 15 min
10 | CC(C)=CCC[C@](C)(O)[C@H]1CC[C@]2(C)[C@@H]1[C@H](O)C[C@@H]1[C@@]3(C)CC[C@H](O)C(C)(C)[C@@H]3[C@@H](O[C@@H]3O[C@H](CO)[C@@H](O)[C@H](O)[C@H]3O[C@@H]3O[C@H](CO)[C@@H](O)[C@H](O)[C@H]3O)C[C@]12C [Ginsenoside Rf] | 76.6 ± 1.04 | 0.25 |  |  |  |  |  |  | time to reach maximum concentration (Cmax) after administration (mouse, in vivo, po): ≤ 15 min
11 | CC(C)=CCC[C@](C)(O[C@@H]1O[C@H](CO)[C@@H](O)[C@H](O)[C@H]1O)[C@H]1CC[C@]2(C)[C@@H]1[C@H](O)C[C@@H]1[C@@]3(C)CC[C@H](O)C(C)(C)[C@@H]3[C@@H](O[C@@H]3O[C@H](CO)[C@@H](O)[C@H](O)[C@H]3O)C[C@]12C [Ginsenoside Rg1] |  |  | 2295.03 ± 213.32 ng·min/g | 2345.90 ± 212.68 ng·min/g | 0.25 | 50.2 ± 6.67 | 2.26 | 98.1 ± 2.74 | time to reach maximum concentration (Cmax) after administration [10]: ≤ 15 min
12 | CC(C)=CCC[C@](C)(O)[C@H]1CC[C@]2(C)[C@@H]1[C@H](O)C[C@@H]1[C@@]3(C)CC[C@H](O)C(C)(C)[C@@H]3[C@@H](O[C@@H]3O[C@H](CO)[C@@H](O)[C@H](O)[C@H]3O[C@@H]3O[C@@H](C)[C@H](O)[C@@H](O)[C@H]3O)C[C@]12C [Ginsenoside Rg2] | 215 ± 6.15 | 0.25 |  |  |  |  |  |  | AUC(0–∞) compared with other components (mouse, in vivo, po): significantly higher than those of other components; time to reach maximum concentration (Cmax) after administration (mouse, in vivo, po): ≤ 15 min
13 | CC(C)=CCC[C@](C)(O)[C@H]1CC[C@]2(C)[C@@H]1[C@H](O)C[C@@H]1[C@@]3(C)CC[C@H](O[C@@H]4O[C@H](CO)[C@@H](O)[C@H](O)[C@H]4O[C@@H]4O[C@H](CO)[C@@H](O)[C@H](O)[C@H]4O)C(C)(C)[C@@H]3CC[C@]12C [Ginsenoside Rg3] |  |  | 1879.87 ± 53.24 ng·min/g | 14,133.43 ± 3134.88 ng/g·min |  |  |  |  | Cmax [3]: 4.75 ± 0.12 ng/g; MRT(0–t) [3]: 230.11 ± 2.69 min; T1/2 [3]: 2381.66 ± 562.33 min; Tmax [3]: 0.0833 ± 0 h

From publication PMC10819458, “Using Pharmacokinetic–Pharmacodynamic Modeling to Study the Main Active Substances of the Anticancer Effect in Mice from Panax ginseng–Ophiopogon japonicus” (Molecules, 2024)
